{"source": "patent US20260000496A1", "about": "“MATERIALS AND METHODS FOR DRUG-INDUCED GINGIVAL OVERGROWTH” (Optimed Technology, Inc., priority 2019, published 2026)", "key": {"[1]": {"tested_on": "NFκB", "assay": "Mice study #2: NFκB immunostaining of gingival tissue", "assay_type": "in vivo, C57BL/6 mice", "protocol": "Mice study #2: Validation study for preventive and active treatment for DIGO. […] One set of these mice were used as a control disease group (FIG. 23A) while the other group was treated with folic acid (gel and in drinking water) (FIG. 23B). In the prevention and treatment group, folic acid (10 μg/ml) (Sigma-Aldrich, St. Louis MO) was included in the drinking water from the time of suture placement until end of the study (14 days). Additionally, gel applications were repeated daily until the end of the study (14 days). The four groups in this study were: • 1. Control group (n=2): no interventions were performed • 2.\nHistopathology and Immunohistochemistry. Mice mandibles were fixed in 10% formaldehyde for overnight at 4° C. on the shaker with 45 rpm and then the solutions were replaced with 70% ethanol. The tissues were decalcified with 10% ethylenediaminetetraacetic acid (EDTA) for 1 week and were dehydrated through graded ethanol, cleared with xylene, and embedded in paraffin. 4 μm serial sections were cut in a buccal-lingual direction and stained with Hematoxylin and Eosin (HE) and observed under light microscopy for histomorphological evaluations.\nFor immunohistochemistry, unstained sections were deparaffinized in xylene for 10 minutes and then transferred to ethanol for 20 minutes. […]"}, "[2]": {"tested_on": "Myd88", "assay": "Mice study #2: Myd88 immunoblotting of gingival samples", "assay_type": "in vivo, C57BL/6 mice", "conditions": "three mice per group", "protocol": "Western blot analysis. Cells were seeded in 60 mm plates with a density of 5×10^5 cells per plate and washed briefly with Dulbecco's phosphate-buffered saline (Gibco, Waltham, MA, USA). Whole cell lysates were prepared using RIPA lysis buffer containing protease inhibitor cocktail (Sigma-Aldrich). Total protein concentration was determined using the BCA reagent (Pierce, Waltham, MA, USA). 20 μg of total protein were resolved on sodium dodecyl sulfate-polyacrylamide gel electrophoresis and transferred to polyvinylidenedifluoride membrane and immunoblotted. The blots were incubated for 1 h in 1% bovine serum albumin (BSA) (Sigma-Aldrich) to block the non-specific bindings followed by over-night incubation in primary antibodies (MyD88 and pP65 from Cell Signaling Technology, and human LITAF ThermoFisher Sigma) at 4° C. on shaker. Next day, blots were washed for three times (10 min each) in Tris-buffered saline containing 1% Tween20 (TBST) followed by incubation with secondary antibody (Goat anti-rabbit IgG HRP) with 1:10,000 dilution for 1 h. […] The band intensities were quantified using software ImageJ (NIH, USA) and relative protein levels were normalized by β-actin (Cell Signaling). […] The band intensities were measured by the software ImageJ (NIH, USA), and relative protein levels were normalized by β-actin."}}}
{"compound": "Nc1nc2ncc(CNc3ccc(C(=O)N[C@@H](CCC(=O)O)C(=O)O)cc3)nc2c(=O)[nH]1", "note": "[folic acid]", "values": [{"measurement": "NFκB epithelial expression, control, disease and folic acid-treated groups", "setting": "[1]", "value": "higher in the control group followed by the disease group"}, {"measurement": "Myd88 expression, disease group relative to control and folic acid treatment group", "setting": "[2]", "value": "higher Myd88 expressions compared to the control and treatment group"}]}
